Records with an inconclusive call do not appear. Active and inactive are the calls of the source.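 Rule for the calls: active = fitted curve reaches 35% inhibition at a concentration up to twice the top valid dose; inconclusive = no clear call, values can overlap the other calls; inactive = the rest, including signal moving the opposite way.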

The first assay has as its system HEK293 LMP1 TES2 NF-kB luciferase reporter, 16 h. In words: inhibitors of LMP1-driven NF-kB reporter, dose response, cell-based, EBV LMP1, luciferase, dry powder (AID 624359).
Conditions: not given
Take `O=c1[nH]c(=O)n([C@H]2C[C@H](O)[C@@H](CO)O2)cc1C(F)(F)F`: the AC35 was 8.74 µM. Still for that read-out and setting: as for `C/C(=N\NC(=S)N1CCCCC1)c1cccc(C)n1`, the figure is 0.492 µM.

Regarding `CC(C)=CCN(C(=O)C#Cc1ccccc1)[C@H](CO)c1ccccc1`, the AC35 is 3.79 µM. For the molecule `C[C@H](CO)N1C[C@H](C)[C@H](CN(C)C(=O)Nc2ccc(C(F)(F)F)cc2)OCCCC[C@H](C)Oc2ccc(NC(=O)Nc3ccc(F)cc3)cc2C1=O`, the AC35 is 16.6 µM. Still for that read-out and setting: in the case of `COc1ccccc1[C@]1(C)ON(c2ccccc2C(F)(F)F)C1=O` it was 7.88 µM; in that of `Cc1ccc(S(=O)(=O)Nc2ccc3c(c2)C(=O)N([C@@H](C)CO)C[C@H](C)[C@@H](CN(C)C(=O)CCC(F)(F)F)OCCCC[C@H](C)O3)cc1`, 0.619 µM; in that of `C[C@@H]1CN([C@@H](C)CO)C(=O)c2cc(NC(=O)Nc3ccc4c(c3)OCO4)ccc2O[C@H]1CN(C)CC1CCCCC1`, 0.738 µM.

For `CCC(Sc1nnc2c3ccccc3n(Cc3ccc(Br)cc3)c2n1)C(=O)NCCCN1CCOCC1` (stereo not given), the AC35 is 5.65 µM. Same read-out and setting: as for `CCc1sc(C(=O)Nc2ncccc2O)cc1C`, the figure is 20.8 µM; as for `COc1ccc2[nH]c(C(=O)N/N=C/c3ccc(O)cc3O)cc2c1`, 9.11 µM; as for `CCN1CCN(C(c2cccnc2)c2cc(Cl)c3cccnc3c2O)CC1` (stereo not given), 7.4 µM.

As to `CC12CCC3C(CC=C4CC(O)CCC43CO)C1CCC2OC(=O)c1ccccc1` (stereo not given), the AC35 was 6.56 µM. Still for that read-out and setting: as for `Fc1ccc2c(c1)c1nnc(SCCN3CCOCC3)nc1n2Cc1ccccc1`, the figure is 10.1 µM; as for `O=C(CCc1ccccc1)NC(c1cccs1)c1cc(Cl)c2cccnc2c1O` (stereo not given), 43.9 µM. On the same count and under the same terms, as for `CCCSc1nnc2c3ccccc3n(Cc3ccccc3)c2n1`, the figure is 3.4 µM.

For the molecule `S=C(NCc1ccccn1)N/N=C/c1ccccn1`, the AC35 is 5.41 µM. The same measure, in the same setting: as for `O=C1/C(=C/c2ccncc2)SC(=S)N1Cc1ccccc1`, the figure is 29 µM. Same read-out and setting: as for `C/C(=N\NC(=S)N1CCCC1)c1ccccn1`, the figure is 0.884 µM; as for `Nc1ccn([C@@H]2O[C@H](CO)[C@@H](O)C2O)c(=O)n1` (stereo not given in full), 27.5 µM. For `C/C(=N\NC(=S)N1CC2CCC(CC2)C1)c1ccccn1`, the AC35 was 5.42 µM. Still for that read-out and setting: in the case of `COc1cccc(/C=N/Nc2ncnc3c2ncn3Cc2ccccc2)c1O` it was 43.4 µM; in that of `Cc1ccc(NC(=O)C2CCN(S(=O)(=O)c3ccc4c(c3)NC(=O)C(C)S4)CC2)cc1Cl` (stereo not given), 4.01 µM; in that of `COCCCNC(=O)C(C)Sc1nnc2c3cc(C)ccc3n(Cc3ccccc3F)c2n1` (stereo not given), 25.8 µM. The same measure, in the same setting: in the case of `C[C@H](CO)N1C[C@H](C)[C@@H](CN(C)Cc2ccc(-c3ccccc3)cc2)Oc2ccc(NC(=O)Nc3cccc4ccccc34)cc2CC1=O` it was 4.13 µM. As for `C/C(=N\NC(=S)N1CCC1)c1ccccn1`, the AC35 was 1.33 µM. The same measure, in the same setting: in the case of `c1ccc(Cn2c3ccccc3c3nnc(SCCN4CCCCC4)nc32)cc1` it was 11 µM; in that of `S=C(N/N=C(\c1ccccc1)c1ccccn1)N(Cc1ccccn1)Cc1ccccn1`, 6 µM; in that of `C/C=C/C/C=C/CCC(=O)[C@H]1O[C@H]1C(N)=O`, 13.2 µM. Same read-out and setting: in the case of `O=C(Nc1cc(C(F)(F)F)cc(C(F)(F)F)c1)Nc1cnn(-c2ccc([N+](=O)[O-])cc2)c1C(F)(F)F` it was 40.7 µM; in that of `C[C@H](CO)N1C[C@H](C)[C@@H](CN(C)CC2CC2)OCCCC[C@H](C)Oc2ccc(NC(=O)Nc3cccc4ccccc34)cc2C1=O`, 0.541 µM; in that of `C/C(=N\NC(=S)N1CCN(c2ccccn2)CC1)c1ccccn1`, 10.5 µM.

Tested on in the next assay: not listed separately
The description is as above. The settings on record: HEK293 LMP1 TES2 NF-kB luciferase reporter, 16 h; at 12 µM (top of the series). In general terms: Reporter assays use an easily measured gene product as a stand-in for the process of interest.
`C/C(=N\NC(=S)N1CCN(C2CCCCCC2)CC1)c1ccccn1`: the activity change, negative = inhibition was 33.5% (inactive).

Staying with this assay, now noted: HEK293 LMP1 TES2 NF-kB luciferase reporter, 16 h; at 15 µM (top of the series).
With `C=C1C[C@]23C[C@@]1(O)CC[C@H]2[C@@]12C=C[C@H](O)[C@@](C)(C(=O)O1)[C@H]2[C@@H]3C(=O)O`, the activity change, negative = inhibition was -4.73% (inactive).

Staying with this assay, now noted: HEK293 LMP1 TES2 NF-kB luciferase reporter, 16 h; at 26 µM (top of the series).
For the molecule `c1ccc(-c2cn3c4c(sc3n2)CCCC4)cc1`, the activity change, negative = inhibition was 6.83% (inactive). On to `C=CCN1Cc2ccccc2[C@@H]2OC(c3ccc(OCCCO)cc3)=N[C@]2(CCC(=O)OC(C)(C)C)C1=O`, for which the activity change, negative = inhibition was 3.78% (inactive). Still for that read-out and setting: in the case of `C/C(=N\NC(=S)N1CC2CCC(CC2)C1)c1ccncn1` it was -1.33% (inactive); in that of `CSC(=S)N/N=C(\C)c1cccc(C)n1`, 8.74% (inactive); in that of `Cc1ccc(S(=O)(=O)NC(CC(C)C)C(=O)NCC(c2ccco2)N2CCCCC2)cc1` (stereo not given), -1.92% (inactive). `COc1ccc2nc(Nc3nc(C)c(CCC(C)C)c(=O)[nH]3)nc(C)c2c1`: the activity change, negative = inhibition is 42.5% (inactive). Still for that read-out and setting: in the case of `CC(=O)Nc1nc(C)c(-c2csc(Nc3ccc(O)cc3)n2)s1` it was 83.3% (inactive); in that of `Cc1c(NC(=O)c2cccc(NC(=O)COc3ccccc3C#N)c2)c(=O)n(-c2ccccc2)n1C`, 47.5% (inactive); in that of `C[C@@H]1CCCCO[C@H](CN(C)C(=O)c2ccccc2)[C@H](C)CN([C@@H](C)CO)C(=O)c2cc(NC(=O)Nc3ccc(F)cc3)ccc2O1`, -13.1% (inactive). On the same count and under the same terms, in the case of `COc1ccc(-c2csc3ncnc(NCCN4CCOCC4)c23)cc1` it was 9.04% (inactive); in that of `C[C@@H]1CCCCO[C@H](CN(C)S(=O)(=O)c2ccccc2)[C@@H](C)CN([C@@H](C)CO)C(=O)c2cc(N(C)C)ccc2O1`, -2.27% (inactive). Same read-out and setting: in the case of `CC1CN(C(=O)CSc2nnc3c4ccccc4n(Cc4cccc(Cl)c4)c3n2)CCN1C(=O)c1ccccc1F` (stereo not given) it was 42.2% (inactive).

On to `COc1ccc(-c2cc3nc4n(c(=O)c3s2)CCC4)cc1`, for which the activity change, negative = inhibition is 20.7% (inactive).

On to `C/C(=N\NC(=S)Nc1ccccc1Cl)c1ccccn1`, for which the activity change, negative = inhibition is 51.4% (inactive).

As for `Oc1cccc(C(Nc2nccs2)c2ccc3cccnc3c2O)c1` (stereo not given), the activity change, negative = inhibition was 23.7% (inactive). Still for that read-out and setting: as for `C[C@@H]1CCCCO[C@H](CN(C)C(=O)CCC(F)(F)F)[C@H](C)CN([C@@H](C)CO)C(=O)c2cc(NC(=O)CCC(F)(F)F)ccc2O1`, the figure is -12.3% (inactive). For `C[C@@H]1CCCCO[C@@H](CN(C)Cc2ccccc2)[C@H](C)CN([C@H](C)CO)C(=O)c2cc(NC(=O)Nc3ccc4c(c3)OCO4)ccc2O1`, the activity change, negative = inhibition is -6.74% (inactive). The same measure, in the same setting: as for `COc1ccccc1NC(=S)N/N=C(\C)c1ccccn1`, the figure is -20.4% (inactive); as for `O=c1[nH]c(Nc2nc3ccccc3o2)nc2c1CCCC2`, 2.84% (inactive); as for `CCc1ccc(/C=C/C(=O)C2C(=O)c3ccccc3C2=O)cc1`, 28.8% (inactive). Regarding `CC1=C(C(=O)OCc2ccc3c(c2)OCO3)C(c2ccc(F)cc2)NC(=O)N1` (stereo not given), the activity change, negative = inhibition was -13.4% (inactive).

As for `C/C(=N\NC(=S)Nc1cccc(C)c1)c1ccccn1`, the activity change, negative = inhibition is 74.3% (inactive). Consider `CCc1ccc(/C=C2\SC(=S)N(CCCC(=O)Nc3ccccn3)C2=O)cc1`, for which the activity change, negative = inhibition was 9.57% (inactive). On the same count and under the same terms, as for `C[C@@H]1CN([C@@H](C)CO)C(=O)c2cccc(NC(=O)Nc3cccc4ccccc34)c2O[C@H]1CN(C)C(=O)Nc1ccc(C(F)(F)F)cc1`, the figure is 26.9% (inactive); as for `CCn1c2ccccc2c2cc(/C=N/n3cnnc3)ccc21`, 30.3% (inactive). The same measure, in the same setting: in the case of `C[C@H](CO)N1C[C@H](C)[C@@H](CN(C)CC2CCCCC2)OCCCC[C@H](C)Oc2ccc(NC(=O)Nc3cccc4ccccc34)cc2C1=O` it was 23.2% (inactive); in that of `COc1ccc(C(=O)Nc2ccc3[nH]ccc3c2)cc1`, 13.6% (inactive); in that of `CNC[C@@H]1Oc2ccc(NS(=O)(=O)c3cn(C)cn3)cc2CC(=O)N([C@H](C)CO)C[C@@H]1C`, 7.33% (inactive). Same read-out and setting: in the case of `C[C@@H]1CN([C@@H](C)CO)C(=O)c2cc(NC(=O)Nc3ccc(C(F)(F)F)cc3)ccc2O[C@@H](C)CCCCO[C@H]1CN(C)Cc1ccc(C(F)(F)F)cc1` it was 24% (inactive); in that of `C[C@@H]1CCCCO[C@H](CN(C)CC2CCCCC2)[C@H](C)CN([C@@H](C)CO)C(=O)c2cc(NC(=O)NC3CCCCC3)ccc2O1`, -3.54% (inactive); in that of `O=C(CSc1nnc2c3ccccc3n(Cc3ccccc3)c2n1)NCc1ccco1`, 12.9% (inactive). On to `CSc1nc(-c2ccc(C)cc2)nc(C(Cl)Cl)n1`, for which the activity change, negative = inhibition is 12% (inactive).
